Measured values taken from patent US8460635B2, “Fenretinide derivatives and uses thereof as therapeutic, diagnostic and imaging agents” (Albert Einstein College of Medicine of Yeshiva University, priority 2008, dated 2013).
pIC50: −log10 of the molar value. Entries after “also recorded” stand apart in the source; their conditions may differ. Read-outs that look alike come from different tables or passages of the source.

Legend:
[1] = system: MON (INI1−/−) rhabdoid tumor cells; assay: MTS survival assay of rhabdoid tumor cells; type: cell-based; details: for cytotoxic activity against rhabdoid tumor cells (in words): compared with 4-HPR
Protocol: FIG. 1A-1D. Effect of 4HPR derivatives with phenyl group substitutions on survival of rhabdoid tumors cells. MON (INI1−/−) cells were treated with serial dilutions of the 4HPR, ATRA and 4HPR derivatives for three days. Survival assay was carried out as described using MTS assay kit. Percentage of cell survival plotted against concentration of drugs (Mean+/−SEM).
FIG. 2. Effect of fenretinide peptidomimitic derivatives on the survival of rhabdoid tumor cells in culture. % survival of MON rhabdoid tumor cells treated with fenretinide derivatives, when compared to the vehicle treated control. The data in all the panels represent the average of triplicate experiments, and the standard error is indicated.
(§1) The rhabdoid cell line (MON) (88) was cultured in RPMI 1640 supplemented with 10% fetal bovine serum, 2 mM L-glutamine, 50 U/ml penicillin, and 50 μg/ml streptomycin at 37° C. with 5% CO2 and 95% humidified air. 4-(Fenretinide) was either obtained from NCI or synthesized in house. Fenretinide or its synthetic derivatives were reconstituted in 100% ethanol as a 10 mM solution and the aliquots were stored frozen at −80° C., protected from light. Working solutions (50 μM or 200 μM) and serial dilutions were prepared by diluting the stock solution with culture medium, such that the concentration of ethanol was <2% in all dilutions.
Aliquots of 8×10^3 MON cells were plated in 96-well microdilution plates. Twenty four hours after seeding, the cells were treated with serial dilutions of each drug. Following incubation for 24 or more hours, each well was stained with 20 μl of MTS [3-(4,5-dimethylthiazol-2-yl)-5-(3-carboxymethoxyphenyl)-2-(4-sulfophenyl)-2H-tetrazolium, inner salt] that was mixed 20:1 V/V in PMS (phenazine methosulphate, CellTiter 96® AQueous Non-Radioactive Cell Proliferation Assay Kit, Promega, Madison, Wis.) added to each of the well in the microtiter plate containing 100 μl of culture medium. After 4 h incubation, the plates were analyzed by an ELISA plate reader (Wallac Victor, 1420 Multilabel Counter, Perkin Elmer) at 490 nm wave-length. Cell plating, drug treatment and survival assay were performed using the epMotion 5070 automated liquid handling robotic system (Eppendorff, Westbury, N.Y.).
Statistical analysis of the data was carried out using GraphPad Prism (San Diego, Calif.). Relative IC50 values were calculated using the nonlinear regression curve fit with sigmoidal dose response (variable slope) function. Relative IC50 is defined as the concentration giving a response exactly half way between the fitted top and bottom of the survival curve when graphed as percent inhibition versus the log of the concentration of compound. The fitting error, or standard error describes the error involved in fitting the curve.

Cyclin D1 = assay: Immunoblot analysis of Cyclin D1 expression; type: cell-based; details: for Repression of Cyclin D1: biomarker expression, Table 3
Protocol: FIG. 5A-5B. Effect of fenretinide, its derivatives and peptidomimetic compounds on expression of Cyclin D1. Immunoblot analysis to determine the effect of fenretinide and its halogen substitutes (A) and peptidomimetic compounds (B). GAPDH is a loading control.
This assay was performed using a routine laboratory protocol as previously described using chemiluminescence detection method (30). The following antibodies were used: polyclonal α-cyclin D1 Ab-3 (NeoMarkers, Cat# RB-010-P0), monoclonal α-cyclin D1 DCS-6 (NeoMarkers, Cat# MS-210-P1), α-β-Actin (Sigma Cat# A5441) and α-Tubulin-α (Sigma, Cat # T5168).
(§2) The effects of fenretinide, halogen substitutes, and peptidomimetic derivatives on cell cycle regulation and apoptosis were tested by using: i) cell survival assay (MTS); ii) FACS analysis; and iii) immunoblot analysis to determine the effect on Cyclin D1.

MON cells = assay: FACS analysis of cell cycle and sub-G1 (apoptosis); type: cell-based; details: 2 days
Protocol: (§3) FIG. 3A-3B. Induction of cell cycle arrest and apoptosis by halogen derivatives of fenretinide. A. Cell cycle profile determined by FACS analysis of MON cells treated with either 5 or 10 μM concentrations of fenretinide and its derivatives for 2 days. Percentage of cells at various stages of cell cycle (G1, S and G2) is indicated. B. Percentage of MON cells at sub-G1 when exposed for 2 days to fenretinide and its derivatives.
as §3, with “4A-4B.” for “3A-3B.”, “peptidomimetic” for “halogen”
as §2

[2] = system: MON (INI1−/−) rhabdoid tumor cells; assay: MTS survival assay of rhabdoid tumor cells; type: cell-based; details: charcoal adsorbed serum
[3] = Precipitation / solubility in cell culture medium; type: physicochemical
Protocol: as §1

[4] = 72 h, MON cells, three days, compounds in FIG. 1A-1D, concentration of drug required to kill 50% of cells, read-out: IC50
[5] = MON rhabdoid cells, survival assay, values in text, read-out: IC50
[6] = regular FBS, read-out: IC50 (in regular FBS)
[7] = MON cells, three days, compounds in FIG. 1A-1D, concentration of drug required to kill 50% of cells, read-out: IC50

Compound | pIC50 [1, 4] | pIC50 [1, 5] | cytotoxic activity against rhabdoid tumor cells (in words) [1] | pIC50 [1, 6] | % G1 (MON cells; 5 μM, Table 5) [%] | % G2 (MON cells; 5 μM, Table 5) [%] | % S (MON cells; 5 μM, Table 5) [%] | SubG1 (percentage of MON cells at sub-G1) (MON cells; 5 μM, Table 5) [%] | % G1 (MON cells; 10 μM, Table 5) [%] | % G2 (MON cells; 10 μM, Table 5) [%] | % S (MON cells; 10 μM, Table 5) [%] | SubG1 (percentage of MON cells at sub-G1) (MON cells; 10 μM, Table 5) [%] | further results
CC1=C(/C=C/C(C)=C/C=C/C(C)=C/C(=O)O)C(C)(C)CCC1 [ATRA, All-trans retinoic acid, reference compound] | 4.00 | 4.00 | did not have appreciable cytotoxic activity; also recorded: did not exhibit activities against rhabdoid tumor cells | < 4.30 | 82.64 | 11.04 | 6.32 | 8.22 | 82.08 | 11.21 | 6.71 | 9.27 | Repression of Cyclin D1 (Cyclin D1): No; down modulation of Cyclin D1 (in words) (Cyclin D1; rhabdoid tumor cells): unable to down modulate Cyclin D1; % G1 (MON cells; 5 μM, Table 6): 82.64%; % G2 (MON cells; 5 μM, Table 6): 9.07%; % S (MON cells; 5 μM, Table 6): 8.58%; SubG1 (percentage of MON cells at sub-G1) (MON cells; 5 μM, Table 6): 8.22%; % G1 (MON cells; 10 μM, Table 6): 82.08%; % G2 (MON cells; 10 μM, Table 6): 8.18%; % S (MON cells; 10 μM, Table 6): 8.51%; SubG1 (percentage of MON cells at sub-G1) (MON cells; 10 μM, Table 6): 9.27%; pIC50 [2]: < 4.82
CC1=C(/C=C/C(C)=C/C=C/C(C)=C/C(=O)Nc2ccc(F)cc2)C(C)(C)CCC1 [5(a)] | 3.82 | ≤ 3.82 |  | < 4.30 | 78.56 | 14.61 | 6.84 | 8.30 | 65.50 | 27.25 | 7.25 | 9.44 | pIC50 [2]: < 4.82
(2E,4E,6E,8E)-[3,7-Dimethyl-9-(2,6,6-trimethyl-1-cyclohexenyl)-nona-2,4,6,8-tetraenoylamino]-(4-bromo)phenylamide [5(c)] |  |  |  |  |  |  |  |  |  |  |  |  | pIC50 [1, 7]: 3.82
CC1=C(/C=C/C(C)=C/C=C/C(C)=C/C(=O)Nc2ccc(O)c(Cl)c2)C(C)(C)CCC1 [5(i), (2E,4E,6E,8E)-[3,7-Dimethyl-9-(2,6,6-trimethyl-1-cyclohexenyl)-nona-2,4,6,8-tetraenoylamino]-(3-chloro, 4-hydroxy)phenylamide] | 4.90 | 5.00 |  | 5.00 |  |  |  |  |  |  |  |  | Repression of Cyclin D1 (Cyclin D1): Yes; pIC50 [2]: 5.82
CC1=C(/C=C/C(C)=C/C=C/C(C)=C/C(=O)Nc2ccc(Cl)cc2)C(C)(C)CCC1 [5(b), (2E,4E,6E,8E)-[3,7-Dimethyl-9-(2,6,6-trimethyl-1-cyclohexenyl)-nona-2,4,6,8-tetraenoylamino]-(4-chloro)phenylamide] | < 3.70 | ≤ 3.82 |  |  |  |  |  |  |  |  |  |  | 
CCC1=C(C)/C(=C/c2ccc(C(=O)Nc3ccc(O)cc3)cc2)CCC1(C)C [Compound 11a, (E)-4-((3-ethyl-2,4,4-trimethylcyclohex-2-enylidene)methyl)-N-(4-hydroxyphenyl)benzamide] |  |  |  |  |  |  |  |  |  |  |  |  | % G1 (MON cells; 5 μM, Table 6): 59.33%; % G2 (MON cells; 5 μM, Table 6): 26.19%; % S (MON cells; 5 μM, Table 6): 14.49%; SubG1 (percentage of MON cells at sub-G1) (MON cells; 5 μM, Table 6): 53.97%; % G1 (MON cells; 10 μM, Table 6): 60.40%; % G2 (MON cells; 10 μM, Table 6): 22.84%; % S (MON cells; 10 μM, Table 6): 16.76%; SubG1 (percentage of MON cells at sub-G1) (MON cells; 10 μM, Table 6): 62.59%; behaviour in cell culture medium (precipitation / insolubility) [3]: precipitated in cell culture medium
CC1=C(/C=C/C(C)=C/C=C/C(C)=C/C(=O)Nc2ccc(O)cc2O)C(C)(C)CCC1 [5(n), (2E,4E,6E,8E)-[3,7-Dimethyl-9-(2,6,6-trimethyl-1-cyclohexenyl)-nona-2,4,6,8-tetraenoylamino]-(2,4-dihydroxy)phenylamide] | 5.10 | 5.10 | retains 4-HPR activity | 5.10 | 85.42 | 8.48 | 6.11 | 25.81 | 88.30 | 6.05 | 5.65 | 43.53 | 
CCC1=C(C)/C(=C/c2ccc(C(=O)O)cc2)CCC1(C)C [Compound 8] |  | < 4.30 |  |  |  |  |  |  |  |  |  |  | pIC50 ([1]; MON cells, nonlinear regression, sigmoidal dose response, read-out: Relative IC50): < 4.30
COc1ccc(NC(=O)/C=C(C)/C=C/C=C(C)/C=C/C2=C(C)CCCC2(C)C)cc1 [5(f), (2E,4E,6E,8E)-[3,7-Dimethyl-9-(2,6,6-trimethyl-1-cyclohexenyl)-nona-2,4,6,8-tetraenoylamino]-(4-methoxy)phenylamide] |  |  |  |  |  |  |  |  |  |  |  |  | behaviour in cell culture medium (precipitation / insolubility) [3]: insoluble in cell culture medium
(2E,4E,6E,8E)-[3,7-Dimethyl-9-(2,6,6-trimethyl-1-cyclohexenyl)-nona-2,4,6,8-tetraenoylamino]-(4-ethylalcohol)phenylamide [5(m)] |  |  | lack of activity |  |  |  |  |  |  |  |  |  | pIC50 [1, 7]: < 4.30
(2E,4E,6E,8E)-[3,7-Dimethyl-9-(2,6,6-trimethyl-1-cyclohexenyl)-nona-2,4,6,8-tetraenoylamino]-(3-nitro, 4-hydroxy)phenylamide [5(k)] |  |  |  |  |  |  |  |  |  |  |  |  | behaviour in cell culture medium (precipitation / insolubility) [3]: insoluble in cell culture medium
(2E,4E,6E,8E)-[3,7-Dimethyl-9-(2,6,6-trimethyl-1-cyclohexenyl)-nona-2,4,6,8-tetraenoylamino]-(4-nitro)phenylamide [5(e)] |  | < 3.70 |  |  |  |  |  |  |  |  |  |  | pIC50 [1, 7]: < 3.70
CC1=C(/C=C/C(C)=C/C=C/C(C)=C/C(=O)Nc2ccc(O)c(F)c2)C(C)(C)CCC1 [5(h), (2E,4E,6E,8E)-[3,7-Dimethyl-9-(2,6,6-trimethyl-1-cyclohexenyl)-nona-2,4,6,8-tetraenoylamino]-(3-fluoro,4-hydroxy)phenylamide] | 5.10 | 5.10 |  | 5.10 | 87.23 | 7.10 | 5.67 | 38.78 | 87.22 | 6.97 | 5.81 | 50.79 | Repression of Cyclin D1 (Cyclin D1): Yes
(2E,4E,6E,8E)-[3,7-Dimethyl-9-(2,6,6-trimethyl-1-cyclohexenyl)-nona-2,4,6-tetraenoylamino]-(4-alcohol)phenylamide [5(l)] |  |  | lack of activity |  |  |  |  |  |  |  |  |  | pIC50 [1, 7]: 4.60
CC1=C(/C=C/C(C)=C/C=C/C(C)=C/C(=O)Nc2ccc(O)c(I)c2)C(C)(C)CCC1 [5(j), (2E,4E,6E,8E)-[3,7-Dimethyl-9-(2,6,6-trimethyl-1-cyclohexenyl)-nona-2,4,6,8-tetraenoylamino]-(3-Iodo, 4-hydroxy)phenylamide] | 5.52 | ~5.52 | more active when compared to parent Fenretinide | 5.52 | 86.11 | 7.83 | 6.06 | 26.48 | 87.97 | 6.87 | 5.16 | 34.21 | Repression of Cyclin D1 (Cyclin D1): Yes; pIC50 [2]: 6.10
